Values after ≈ are worked out from the molar mass of the structure shown.
Key:
[1] = Solubility limit in 1 M NaOH; type: physicochemical; details: aqueous buffer
Excerpt: In one embodiment, the phenazine derivative is present in the electrolyte at a concentration within a range of 0.01 M to 4 M. In an independent embodiment, the phenazine derivative is present in the electrolyte at a concentration within a range of from 4 M to 8 M. Certain embodiments of the phenazine derivatives provide 2 moles of electron transfer per mole of the compound, thus providing, for example, 2 M electron transfer when the phenazine derivative concentration is 1 M.

[2] = Cyclic voltammetry in 1 M NaOH; type: physicochemical; details: scan rate 100 mV/sec, 8.5 mM
Description: Electrochemical Methods: Cyclic voltammetry experiments were performed with a CH Instruments model 660C potentiostat using a glassy carbon working electrode, a platinum wire counter electrode, and a Ag/AgCl reference electrode.
[…]. This potential exceeds all other aqueous organic flow battery systems reported to date, which, combining the high effective electron concentration resulted from high solubility, leads to high theoretical energy densities.

[3] = cited from earlier work

SMILES | solubility [1] [mM] | redox couple (vs. Ag/AgCl) [2] [V] | solubility in water [3]
O=S(=O)(O)c1ccc2nc3cc(O)c(O)cc3nc2c1 [DHPS, 7,8-dihydroxy-phenazine-2-sulfonic acid] | 1450 (≈ 424 mg/mL) | −1.08 | 
c1ccc2nc3ccccc3nc2c1 [phenazine] |  |  | insoluble in water

Reference: US10454124B2, “Highly stable phenazine derivatives for aqueous redox flow batteries” (Battelle Memorial Institute, priority 2017, dated 2019)
